Data published in patent US20250177396A1, “POLO-LIKE KINASE 4 (PLK4) INHIBITORS, PHARMACEUTICAL COMPOSITIONS, METHODS OF PREPARATION AND USES THEREOF” (Repare Therapeutics Inc., priority 2022, published 2025).

Molecular target: T1, PLK4 (Homo sapiens, UniProt O00444)
T1 construct: expressed in transfected cells; host or cells: HEK293 T cells (ATCC CRL-3216)
T1 sequence (O00444 1-970): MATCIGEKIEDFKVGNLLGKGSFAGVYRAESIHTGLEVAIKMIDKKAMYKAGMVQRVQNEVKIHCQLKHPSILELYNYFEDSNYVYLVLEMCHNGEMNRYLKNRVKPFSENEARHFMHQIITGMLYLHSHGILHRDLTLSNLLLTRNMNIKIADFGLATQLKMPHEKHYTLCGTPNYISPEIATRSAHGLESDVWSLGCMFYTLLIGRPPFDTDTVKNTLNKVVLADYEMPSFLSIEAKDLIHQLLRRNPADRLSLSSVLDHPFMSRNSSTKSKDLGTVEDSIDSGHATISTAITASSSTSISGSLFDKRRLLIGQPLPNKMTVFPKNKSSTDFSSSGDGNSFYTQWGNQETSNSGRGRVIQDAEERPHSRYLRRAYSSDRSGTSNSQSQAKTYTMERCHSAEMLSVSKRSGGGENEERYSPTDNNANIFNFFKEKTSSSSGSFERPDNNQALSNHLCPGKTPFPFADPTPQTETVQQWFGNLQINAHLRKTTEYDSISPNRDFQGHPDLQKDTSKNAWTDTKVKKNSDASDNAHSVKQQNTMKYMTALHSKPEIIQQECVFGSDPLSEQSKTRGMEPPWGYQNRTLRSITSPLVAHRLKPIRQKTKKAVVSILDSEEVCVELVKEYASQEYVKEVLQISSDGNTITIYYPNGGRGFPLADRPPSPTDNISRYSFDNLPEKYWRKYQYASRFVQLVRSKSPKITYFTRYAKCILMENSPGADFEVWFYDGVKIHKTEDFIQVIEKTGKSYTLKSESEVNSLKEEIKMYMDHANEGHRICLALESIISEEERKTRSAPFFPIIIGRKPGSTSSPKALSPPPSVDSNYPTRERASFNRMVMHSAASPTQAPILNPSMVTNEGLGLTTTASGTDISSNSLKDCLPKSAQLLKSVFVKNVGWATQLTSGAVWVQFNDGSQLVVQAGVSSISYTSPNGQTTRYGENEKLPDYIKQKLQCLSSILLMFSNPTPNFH
Assay: PLK4 NanoBRET target engagement assay
Type: binding
Conditions: HEK293 T cells transfected with PLK4 NanoLuc fusion vector; K-5 tracer; 2 hrs incubation
In short: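 HEK293T cells transiently expressing PLK4-NanoLuc, plated at 17000 cells/well with K-5 tracer and compound, incubated 2 h at 37 °C/5% CO2. After substrate/inhibitor mix, 610/450 nm emission ratio ×1000 gave mBRET; IC50 from 4-parameter fit.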

Point of comparison: COc1c(Nc2cc(C)[nH]n2)nc(N(CC(=O)O)c2ccc(S(C)(=O)=O)cc2F)nc1-c1cnn(C)c1 [Compound 91], IC50 5400 nM. Against it:
- Cc1cc(Nc2nc(N(C)c3c(F)cc(S(C)(=O)=O)cc3F)nc(-c3ccn(C)c(=O)c3)c2C2CC2)n[nH]1 [Compound 205] — 250-fold lower, 22 nM
- Cc1cc(Nc2nc(N(C)c3c(F)cc(S(C)(=O)=O)cc3F)nc(-c3cn(CC(C)(C)O)nc3C)c2C2CC2)n[nH]1 [Compound 330] — 600-fold lower, 9 nM
- Cc1cc(Nc2nc(N(C)c3ccc(S(C)(=O)=O)cc3F)cc(-c3cnn(C)c3)c2C2CC2)n[nH]1 [Compound 20, 3-cyclopropyl-N^6-(2-fluoro-4-(methylsulfonyl)phenyl)-N^6-methyl-N^2-(5-methyl-1H-pyrazol-3-yl)-4-(1-methyl-1H-pyrazol-4-yl)pyridine-2,6-diamine] — 78-fold lower, 69 nM
- COc1c(Nc2cc(C)[nH]n2)nc(N(C)c2ccc(C#N)cc2F)nc1-c1cnn(C)c1 [Compound 63] — 19-fold lower, 280 nM
- Cc1cc(Nc2nc(N(C)c3c(F)cc(S(C)(=O)=O)cc3F)nc(N3CC(n4cccn4)C3)c2C2CC2)n[nH]1 [Compound 233] — 120-fold lower, 45 nM
- Cc1cc(Nc2nc(N(C)c3c(F)cc(S(C)(=O)=O)cc3F)nc(-c3nc(C)[nH]c3C)c2C2CC2)n[nH]1 [Compound 168] — 130-fold lower, 41 nM
- Cc1cc(Nc2nc(N(C)c3c(F)cc(S(C)(=O)=O)cc3F)nc(-c3cn(C)c(C)n3)c2C2CC2)n[nH]1 [Compound 124] — 2700-fold lower, 2 nM
- Cc1cc(Nc2nc(N(C)c3c(F)cc(S(C)(=O)=O)cc3F)nc(-c3cccnn3)c2C2CC2)n[nH]1 [Compound 146] — 260-fold lower, 21 nM
- Cc1cc(Nc2nc(N(C)c3cc(F)c(S(C)(=O)=O)cc3F)nc(-c3cn(C4CC4)cn3)c2C2CC2)n[nH]1 [Compound 207] — 900-fold lower, 6 nM
- COc1c(Nc2cc(C)[nH]n2)nc(N(CCN(C)C)c2ccc(S(C)(=O)=O)cc2F)nc1-c1cnn(C)c1 [Compound 77] — 9.3-fold lower, 580 nM
- Cc1cc(Nc2nc(N(C)c3c(F)cc(C#N)cc3F)nc(-c3cn(C)cn3)c2C2CC2)n[nH]1 [Compound 339] — 220-fold lower, 24 nM
- COc1c(Nc2cc(C)[nH]n2)nc(N(C)c2ccc(S(C)(=O)=O)cc2F)nc1-c1cnn(C)c1 [Compound 2, N^2-(2-fluoro-4-(methylsulfonyl)phenyl)-5-methoxy-N^2-methyl-N^4-(5-methyl-1H-pyrazol-3-yl)-6-(1-methyl-1H-pyrazol-4-yl)pyrimidine-2,4-diamine] — 100-fold lower, 53 nM
- Cc1cc(Nc2nc(N(C)c3cc(F)c(S(C)(=O)=O)cc3F)nc(-c3cnn(C)c3C(N)=O)c2C2CC2)n[nH]1 [Compound 248] — 160-fold lower, 33 nM
- CC(=O)N1CCC(c2cc(F)c(N(C)c3nc(Nc4cc(C)[nH]n4)c(C4CC4)c(-c4cn(C)cn4)n3)c(F)c2)CC1 [Compound 349] — 120-fold lower, 46 nM
- COc1c(Nc2cc(C)[nH]n2)nc(N2CCc3cc(S(C)(=O)=O)ccc32)nc1-c1cnn(C)c1 [Compound 5, 5-methoxy-N-(5-methyl-1H-pyrazol-3-yl)-6-(1-methyl-1H-pyrazol-4-yl)-2-(5-(methylsulfonyl)indolin-1-yl)pyrimidin-4-amine] — 4.9-fold lower, 1100 nM
- Cc1cc(Nc2nc(N(C)c3c(F)cc(S(C)(=O)=O)cc3F)nc(-c3cnn(C)c3C(C)(C)O)c2C2CC2)n[nH]1 [Compound 294] — 600-fold lower, 9 nM
- [2H]C([2H])([2H])n1cc(-c2nc(N(C)c3c(F)cc(S(C)(=O)=O)cc3F)nc(Nc3cc(C)[nH]n3)c2C2CC2)c(C)n1 [Compound 152] — 1100-fold lower, 5 nM
- Cc1cc(Nc2nc(N(C)c3c(F)cc(S(C)(=O)=O)cc3F)nc(N3CCc4c(ncn4C)C3)c2C2CC2)n[nH]1 [Compound 269] — 390-fold lower, 14 nM
- Cc1cc(Nc2nc(N(C)c3ccc(S(C)(=O)=O)cc3F)nc(-c3ncc(C)s3)c2C2CC2)n[nH]1 [Compound 44] — 22-fold lower, 240 nM
- Cc1cc(Nc2nc(N(C)c3ccc(S(=O)(=O)C(C)(C)C)cc3)nc(-c3cnn(C)c3)c2C2CC2)n[nH]1 [Compound 82] — 83-fold lower, 65 nM
- COc1c(Nc2cc(C)[nH]n2)nc(Nc2ccc(S(C)(=O)=O)cc2C)c(C)c1-c1cnn(C)c1 [Compound 96] — 8.1-fold lower, 670 nM
- COc1c(Nc2cc(C)[nH]n2)nc(N(C)c2ccc(S(C)(=O)=O)nc2)nc1-c1cnn(C)c1 [Compound 58] — 4.9-fold lower, 1100 nM
- CN(C)C(=O)c1c(-c2nc(N(C)c3c(F)cc(S(C)(=O)=O)cc3F)nc(Nc3cc(C4CC4)[nH]n3)c2C2CC2)cnn1C [Compound 280] — 5400-fold lower, 1 nM
- Cc1cc(Nc2nc(N(C)c3c(F)cc(S(C)(=O)=O)cc3F)nc(-c3cn(C)c(C(F)F)n3)c2C2CC2)n[nH]1 [Compound 165] — 1400-fold lower, 4 nM
- Cc1cc(Nc2nc(N(C)c3c(F)cc(S(C)(=O)=O)cc3F)nc(-c3cnn4cccnc34)c2C2CC2)n[nH]1 [Compound 326] — 600-fold lower, 9 nM
- Cc1cc(Nc2nc(N(C)c3ccc(S(C)(=O)=O)cc3F)nc(-c3ccn(C)n3)c2C2CC2)n[nH]1 [Compound 12, 5-cyclopropyl-N^2-(2-fluoro-4-(methylsulfonyl)phenyl)-N^2-methyl-6-(1-methyl-1H-pyrazol-3-yl)-N^4-(5-methyl-1H-pyrazol-3-yl)pyrimidine-2,4-diamine] — 340-fold lower, 16 nM
- Cc1cc(-c2nc(N(C)c3c(F)cc(S(C)(=O)=O)cc3F)nc(Nc3cc(C)[nH]n3)c2C2CC2)cnn1 [Compound 130] — 220-fold lower, 24 nM
- Cc1cc(Nc2nc(N(C)c3c(F)cc(S(C)(=O)=O)cc3F)nc(-c3cn(CCS(C)(=O)=O)c(C)n3)c2C2CC2)n[nH]1 [Compound 192] — 8.9-fold lower, 610 nM
- Cc1cc(Nc2nc(N(C)c3cc(F)c(S(C)(=O)=O)cc3F)nc(-c3cn(C)c(C)n3)c2C2CC2)n[nH]1 [Compound 187] — 420-fold lower, 13 nM
- Cc1cc(Nc2nc(N(C)c3c(F)cc(C4(C(N)=O)CC4)cc3F)nc(-c3cn(C)cn3)c2C2CC2)n[nH]1 [Compound 358] — 200-fold lower, 27 nM
- COCCn1cc(-c2nc(N(C)c3c(F)cc(S(C)(=O)=O)cc3F)nc(Nc3cc(C)[nH]n3)c2C2CC2)nc1C [Compound 188] — 680-fold lower, 8 nM
- COCc1nc(-c2nc(N(C)c3c(F)cc(S(C)(=O)=O)cc3F)nc(Nc3cc(C)[nH]n3)c2C2CC2)cn1C [Compound 164] — 680-fold lower, 8 nM
- Cc1cc(Nc2nc(N(C)c3cc(F)c(S(C)(=O)=O)cc3F)nc(-c3cn4c(n3)CCC4)c2C2CC2)n[nH]1 [Compound 197] — 220-fold lower, 24 nM
- Cc1cc(Nc2nc(N(C)c3cc(F)c(S(C)(=O)=O)cc3F)nc(-c3ccn(C)n3)c2C2CC2)n[nH]1 [Compound 133] — 300-fold lower, 18 nM
- Cc1cc(Nc2nc(N(C)c3c(F)cc(S(C)(=O)=O)cc3F)nc(-c3nccn3C)c2C2CC2)n[nH]1 [Compound 142] — 420-fold lower, 13 nM
- COCCn1cnc(-c2nc(N(C)c3c(F)cc(S(C)(=O)=O)cc3F)nc(Nc3cc(C)[nH]n3)c2C2CC2)c1 [Compound 139] — 1400-fold lower, 4 nM
- Cc1cc(Nc2nc(N(C)c3c(F)cc(S(C)(=O)=O)cc3F)nc(-n3ccccc3=O)c2C2CC2)n[nH]1 [Compound 235] — 4.9-fold lower, 1100 nM
- COc1c(-c2cnn(C)c2)cc(N(C)c2ccc(S(C)(=O)=O)cc2F)nc1Nc1cc(C)[nH]n1 [Compound 19, N^6-(2-fluoro-4-(methylsulfonyl)phenyl)-3-methoxy-N^6-methyl-N^2-(5-methyl-1H-pyrazol-3-yl)-4-(1-methyl-1H-pyrazol-4-yl)pyridine-2,6-diamine] — 96-fold lower, 56 nM
- Cc1cc(Nc2nc(N(C)c3c(F)cc(S(C)(=O)=O)cc3F)nc(-c3ccncn3)c2C2CC2)n[nH]1 [Compound 135] — 300-fold lower, 18 nM
- Cc1cc(Nc2nc(N(C)c3c(F)cc(S(C)(=O)=O)cc3F)nc(-c3cn(C)nc3CC#N)c2C2CC2)n[nH]1 [Compound 329] — 1400-fold lower, 4 nM
